# US20040167226A1, “Methods for the treatment of pain and traumatic injury using benzamides and compositions containing the same” (priority 2002, published 2004)
# Experiments:
# [1] = PK parameter estimates, 30 mg/kg po in 1% methyl cellulose; type: in vivo, rats; details: rat, plasma, rats, 30 mg/kg po in 1% methyl cellulose, n = 3
# Source text: The time course of plasma concentration of compound N is depicted in FIG. 1 as well.
# [2] = test system: Taxol-induced mechanical allodynia; test: Taxol-induced neuropathic pain rat model, 50% paw withdrawal threshold (up-down method); type: in vivo, Sprague-Dawley rats; details: rats, 50 mg/kg p.o. in 1% methylcellulose (positive control)
# Source text: Sprague-Dawley male rats with 150-160 grams of body weight were used in the studies presented herein. Rats were trained in the enclosure one hour per day in the morning for a one week period prior to obtaining the baseline response. Whereas the mouse studies assessed percentage of response, the rat studies determined 50% of the paw withdrawal threshold, also called the up-down method as developed by Chung and colleagues. In order to obtain consistent data, naïve rats with paw withdrawal threshold no less than 4 grams were included for further studies. Taxol at a dose of 1 mg/kg (body weight) was administered daily to rats intraperitoneally. As observed in mice, the rats treated with Taxol daily developed stable mechanical allodynia on day 9 and thereafter. On day 13 and day 14 of Taxol induction, the rats pain behavior in term of 50% of paw withdrawal threshold was measured. Only those rats with paw withdrawal threshold measurements no greater than 7 grams for two consecutive days were included for drug testing. Generally speaking, the mechanical allodynia in Taxol treated rats fell in the range of 1-4 gram of paw withdrawal threshold.
# 1 ml per kg of body weight of either 50 mg/ml or 20 mg/ml of Compound A was administered to rats via oral gavage feeding (p.o.), to yield a dose of either 50 mg/Kg (body weight) or 20 mg/Kg (body weight). The same corresponding volume of 1% methylcellulose was used as vehicle control. 34 male Sprague-Dawely rats were employed for the study. The baseline paw withdrawal threshold (grams of force applied to the plantar area of the right hind paw) and neuropathic pain induction with daily intraperitoneal administration of 1 mg/kg (body weight) was performed as indicated in the previous section. The Taxol treatment was continued for 15 days until the pain threshold remained relatively stable. Animals with baseline greater than 4 grams and with threshold […] post induction were included in the drug testing. 27 rats met the criteria for the next step studies and were randomly assigned into four groups. Group 1 consisting of 7 rats was given 1% methylcellulose as vehicle control group, 1 ml of vehicle per kilograms of body weight was administered to animal via p.o.; group 2 with 6 animals was dosed at 20 mg/kg (body weight) of Compound A via oral gavage feeding (p.o.); group 3 with 7 rats was dosed at 50 mg/kg of Compound A, and the fourth group with 7 rats received Gabapentine at 50 mg/kg via p.o. in the same vehicle as a positive control group. Those rats were habituated in the enclosure and 50% of paw withdrawal thresholds (grams of force) were measured using a set of von Frey filaments, as described in the previous section, at time points of 1, 2, 3, 6, and 24 hours postdosing in a blinded fashion. The tester had no knowledge of which animals received drug or vehicle. It was noted that rats tested were very sleepy in the late afternoon (for 6 hour postdosing measurement), thus the data would not be reliable for 6-hour postdosing time points. […] After finishing the 24 hour postdosing measurement, the paw withdrawal threshold of each animal was calculated and data was analyzed.
smiles,measurement,setting,value
"CC(=O)Nc1cccc(C(=O)NC(C)(C)C)c1 [Compound D, N-tert-butyl-3-acetamidobenzamide]",melting point,,194 to 195 °C
"CC(C)(C)NC(=O)c1cccc([N+](=O)[O-])c1 [Compound G, N-tert-butyl-3-nitrobenzamide]",melting point,,123 to 125 °C
"CC(C)(C)NC(=O)c1ccc(N)cc1 [Compound N, N-tert-butyl-4-aminobenzamide]",AUC(0-inf),[1],1030 µg·h/mL
same,Cmax,[1],5400 ng/mL
same,Tmax,[1],0.5 h
same,half-life,[1]; read-out: Elim.t1/2 (converted),355 h
same,melting point,,125 to 127 °C
"NCC1(CC(=O)O)CCCCC1 [Gabapentine, reference compound]",time of peak analgesic effect postdosing,[2],3 to 6 h
